Source: patent US20080188543A1, “PHARMACEUTICAL COMPOSITIONS CONTAINING SUBSTITUTED INDOLE ACID DERIVATIVES AS INHIBITORS OF PLASMINOGEN ACTIVATOR INHIBITOR-1 (PAI-1)” (Wyeth, priority 2007, published 2008)

Assay: Solubility profile (free acid in HCl/NaOH solution, supernatants assayed by HPLC)
Assay type: physicochemical
Protocol: A solubility profile for [1-(4-tert-butylbenzyl)-5-(3-methylphenyl)-1H-indol-3-yl](oxo)acetic acid was generated using the free acid in HCl/NaOH solution (See FIG. 3). Solutions were centrifuged after 24 hours equilibration (2 hours for pH<4 to avoid degradation) and the supernatants were assayed by HPLC.

Cc1cccc(-c2ccc3c(c2)c(C(=O)C(=O)O)cn3Cc2ccc(C(C)(C)C)cc2)c1 [[1-(4-tert-Butylbenzyl)-5-(3-methylphenyl)-1H-indol-3-yl](oxo)acetic acid]
pH-solubility profile (above pH 4 up to pH 8, free acid in HCl/NaOH, 24 hours equilibration): solubility increases with increasing pH | pH-solubility profile (above pH 8, precipitation of the sodium salt): solubility decreases | solubility (pH<4, the stomach condition, 2 hours equilibration): poor solubility | aqueous solubility (upon ionization in aqueous media): approximately 24 uG/mL
